Measured values published in patent US11464770B2, “Anticancer pharmaceutical composition” (NATIONAL CANCER CENTER, priority 2016, dated 2022).
Like-named read-outs stand apart in the source and are kept apart here.

Experiments:
[1] = tested on: breast cancer cell lines (e.g. MDA-MB-231, SK-BR-3, MDA-MB-468, HCC1954); assay: Cell based assay, cell viability (CellTiter-Glo), breast cancer cell lines
How it was run: (§1)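 Plated cells (24 h) → compound to 0–2 μM final → 72 h → CellTiter-Glo ATP luminescence.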

[2] = tested on: ovarian cancer cell lines; assay: Cell based assay, cell viability (CellTiter-Glo), ovarian cancer cell lines; details: Homo sapiens; OVCAR-3 cells
How it was run: as §1

[3] = tested on: RT4: human urinary bladder transitional cell papilloma; assay: Cell based assay, cytotoxicity in RT4 papilloma cells (selectivity); details: Homo sapiens, RT-4; RT4 cells
[4] = Homo sapiens, BT-20 cells, 72 hours treatment, CellTiter-Glo cell viability, read-out: IC50, Breast cancer cell line BT-20
[5] = Homo sapiens, HCC1395 cells, 72 hours treatment, CellTiter-Glo cell viability, read-out: IC50, Breast cancer cell line HCC1395
[6] = Homo sapiens, HCC1954 cells, 72 hours treatment, CellTiter-Glo cell viability, read-out: IC50, Breast cancer cell line HCC1954
[7] = Homo sapiens, JIMT-1 cells, 72 hours treatment, CellTiter-Glo cell viability, read-out: IC50, Breast cancer cell line JIMT-1
[8] = Homo sapiens, MCF7 cells, 72 hours treatment, CellTiter-Glo cell viability, read-out: IC50, Breast cancer cell line MCF7
[9] = Homo sapiens, MDA-MB-231 cells, 72 hours treatment, CellTiter-Glo cell viability, read-out: IC50, Breast cancer cell line MDA-MB-231
[10] = Homo sapiens, MDA-MB-468 cells, 72 hours treatment, CellTiter-Glo cell viability, read-out: IC50, Breast cancer cell line MDA-MB-468
[11] = Homo sapiens, SK-BR-3 cells, 72 hours treatment, CellTiter-Glo cell viability, read-out: IC50, Breast cancer cell line SK-BR-3
[12] = MDA-MB-231-L/DOX cells, 72 hours treatment, CellTiter-Glo cell viability, read-out: IC50, Breast cancer cell line MDA-MB-231-L/DOX
[13] = Breast cancer cell line MDA-MB-231-L/DOX, 72 hours, CellTiter-Glo, read-out: IC50, MDA-MB-231-L/DOX
[14] = Homo sapiens, Breast cancer cell line BT-20, 72 hours, CellTiter-Glo, read-out: IC50, BT-20
[15] = Homo sapiens, Breast cancer cell line HCC1395, 72 hours, CellTiter-Glo, read-out: IC50, HCC1395
[16] = Homo sapiens, Breast cancer cell line HCC1954, 72 hours, CellTiter-Glo, read-out: IC50, HCC1954
[17] = Homo sapiens, Breast cancer cell line JIMT-1, 72 hours, CellTiter-Glo, read-out: IC50, JIMT-1
[18] = Homo sapiens, Breast cancer cell line MCF7, 72 hours, CellTiter-Glo, read-out: IC50, MCF7
[19] = Homo sapiens, Breast cancer cell line MDA-MB-231, 72 hours, CellTiter-Glo, read-out: IC50, MDA-MB-231
[20] = Homo sapiens, Breast cancer cell line MDA-MB-468, 72 hours, CellTiter-Glo, read-out: IC50, MDA-MB-468
[21] = Homo sapiens, Breast cancer cell line SK-BR-3, 72 hours, CellTiter-Glo, read-out: IC50, SK-BR-3

| SMILES | IC50 [1, 4] [nM] | IC50 [1, 5] [nM] | IC50 [1, 6] [nM] | IC50 [1, 7] [nM] | IC50 [1, 8] [nM] | IC50 [1, 9] [nM] | IC50 [1, 10] [nM] | IC50 [1, 11] [nM] | IC50 [1, 12] [nM] | IC50 [2] [nM] | IC50 [3] [nM] | IC50 [1, 13] [nM] | IC50 [1, 14] [nM] | IC50 [1, 15] [nM] | IC50 [1, 16] [nM] | IC50 [1, 17] [nM] | IC50 [1, 18] [nM] | IC50 [1, 19] [nM] | IC50 [1, 20] [nM] | IC50 [1, 21] [nM] |
| --- | --- | --- | --- | --- | --- | --- | --- | --- | --- | --- | --- | --- | --- | --- | --- | --- | --- | --- | --- | --- |
| COc1cccc2[nH]c([S+]([O-])Cc3cc(C)on3)c(C(C)=O)c(=O)c12 (centres unmarked) [Compound 94, 3-acetyl-5-methoxy-2-(((5-methylisoxazol-3-yl)methyl)sulfinyl)quinolin-4(1H)-one] | > 2000 | > 10000 | > 2000 | > 10000 | > 2000 | > 2000 | 1850 | 1850 | > 2000 | 1100 | > 10000 | – | – | – | – | – | – | – | – | – |
| CC(=O)c1c(S)[nH]c2c(Br)ccc(Cl)c2c1=O [Compound 62, 3-acetyl-8-bromo-5-chloro-2-mercaptoquinolin-4(1H)-one] | – | – | – | – | – | – | – | – | – | > 2000 | > 10000 | > 2000 | > 2000 | > 10000 | > 2000 | > 10000 | > 2000 | > 2000 | > 2000 | > 2000 |
| CC(=O)c1c([S+]([O-])CN2C(=O)c3ccccc3C2=O)[nH]c2c(Cl)ccc(Cl)c2c1=O (centres unmarked) [Compound 90, 2-(((3-acetyl-5,8-dichloro-4-oxo-1,4-dihydroquinolin-2-yl)sulfinyl)methyl)isoindoline-1,3-dione] | > 2000 | > 10000 | > 2000 | > 10000 | > 2000 | > 2000 | > 2000 | > 2000 | > 2000 | > 2000 | > 10000 | – | – | – | – | – | – | – | – | – |
| CC(=O)c1c([S+](C)[O-])n(Cc2ccc(F)c(Cl)c2)c2c(Br)ccc(Cl)c2c1=O (centres unmarked) [Compound 22, 3-acetyl-8-bromo-5-chloro-1-(3-chloro-4-fluorobenzyl)-2-(methylsulfinyl)quinolin-4(1H)-one] | – | – | – | – | – | – | – | – | – | > 2000 | > 10000 | > 2000 | > 2000 | > 10000 | > 2000 | > 10000 | > 2000 | > 2000 | > 2000 | > 2000 |
| CC(=O)c1c(SCc2cccc(F)c2)[nH]c2c(Br)ccc(Cl)c2c1=O [Compound 49, 3-acetyl-8-bromo-5-chloro-2-((3-fluorobenzyl)thio)quinolin-4(1H)-one] | – | – | – | – | – | – | – | – | – | > 2000 | > 10000 | > 2000 | > 2000 | > 10000 | > 2000 | > 10000 | > 2000 | > 2000 | > 2000 | > 2000 |
| CC(=O)c1c(SC(C)C)[nH]c2c(Br)ccc(Cl)c2c1=O [Compound 24, 3-acetyl-8-bromo-5-chloro-2-(isopropylthio)quinolin-4(1H)-one] | – | – | – | – | – | – | – | – | – | > 2000 | > 10000 | > 2000 | > 2000 | > 10000 | > 2000 | > 10000 | > 2000 | > 2000 | > 2000 | > 2000 |
| CC(=O)c1c([S+](C)[O-])n(S(=O)(=O)c2ccc(C(C)(C)C)cc2)c2c(Br)ccc(Cl)c2c1=O (centres unmarked) [Compound 42, 3-acetyl-8-bromo-1-((4-(tert-butyl)phenyl)sulfonyl)-5-chloro-2-(methylsulfinyl)quinolin-4(1H)-one] | – | – | – | – | – | – | – | – | – | > 2000 | > 10000 | > 2000 | > 2000 | > 10000 | > 2000 | > 10000 | > 2000 | > 2000 | > 2000 | 1570 |
| CC(=O)c1c([S+](C)[O-])n(S(=O)(=O)C(F)(F)F)c2c(Br)ccc(Cl)c2c1=O (centres unmarked) [Compound 36, 3-acetyl-8-bromo-5-chloro-2-(methylsulfinyl)-1-((trifluoromethyl)sulfonyl)quinolin-4(1H)-one] | – | – | – | – | – | – | – | – | – | > 2000 | > 10000 | > 2000 | > 2000 | > 10000 | > 2000 | > 10000 | > 2000 | > 2000 | > 2000 | > 2000 |
| CSc1[nH]c2c(Br)ccc(Cl)c2c(=O)c1C(C)=O [Compound 2, 3-acetyl-8-bromo-5-chloro-2-(methylthio)quinolin-4(1H)-one] | – | – | – | – | – | – | – | – | – | > 2000 | > 10000 | > 2000 | > 2000 | > 10000 | > 2000 | > 10000 | > 2000 | > 2000 | > 2000 | > 2000 |
| CSc1c(C(C)=O)c(=O)c2c(Cl)ccc(Br)c2n1S(=O)(=O)c1ccc(Cl)cc1 [Compound 37, 3-acetyl-8-bromo-5-chloro-1-((4-chlorophenyl)sulfonyl)-2-(methylthio)quinolin-4(1H)-one] | – | – | – | – | – | – | – | – | – | > 2000 | > 10000 | > 2000 | > 2000 | > 10000 | > 2000 | > 10000 | > 2000 | > 2000 | > 2000 | > 2000 |
